Each block holds one compound with its values, some of them ahead of it.
Tests used:
[1] = molecular target: T1, Hell's Gate globin-I (HGb-I) (Candidatus Methylacidiphilum infernorum, UniProt B3DUZ7); test: optical (absorbance) titration of ferric protein at pH […] °C; assay type: binding
T1 construct: gene hmp
T1 sequence (B3DUZ7 1-133): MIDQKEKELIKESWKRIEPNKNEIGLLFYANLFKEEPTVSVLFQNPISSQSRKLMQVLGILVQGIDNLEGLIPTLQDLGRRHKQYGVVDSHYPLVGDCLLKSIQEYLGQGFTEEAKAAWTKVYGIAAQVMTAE

[2] = molecular target: T1, Hell's Gate globin-I (HGb-I); test: stopped-flow CO binding kinetics; optical spectrum of ferrous-CO form
[3] = molecular target: T1, Hell's Gate globin-I (HGb-I); test: optical (absorbance) titration of ferric protein at pH […] °C; supported by EPR and stopped flow; assay type: binding

- Kd [1]: 9.88 µM
Structure (SMILES): CCCCCCCCCCCCCCCC(=O)O [palmitate]

Structure (SMILES): [C-]#[O+] [carbon monoxide]
- stopped-flow CO binding kinetics; optical spectrum of ferrous-CO form [2]: In the absence of oleate, the CO binding to the hexacoordinate form is slow and reaches a plateau

- Kd [3]: 0.73 µM
Structure (SMILES): CCCCCCCC/C=C\CCCCCCCC(=O)O [oleate]

From PMC11203436, “Hell’s Gate Globin-I from Methylacidiphilum infernorum Displays a Unique Temperature-Independent pH Sensing Mechanism Utililized a Lipid-Induced Conformational Change” (International Journal of Molecular Sciences, 2024)
